# Assay results as given in patent US20130287688A1, “NOVEL COMPOSITIONS AND USES OF ANTI-HYPERTENSION AGENTS FOR CANCER THERAPY” (XTUIT PHARMACEUTICALS, INC., priority 2010, published 2013).
# Where “and” joins values, the source holds several entries; their conditions need not be identical. Equal entries are not always repeated.
# What was measured:
# [1] = system: HSTS26T tumors; assay: IgG diffusion by fluorescence recovery after photobleaching (FRAP); assay type: in vivo, SCID mice
# Experimental: FIG. 9 is a bar graph showing the changes in diffusion coefficient in HSTS26T tumors after losartan treatment. The diffusion coefficient of IgG was measured in HSTS26T tumors implanted in the dorsal window chamber of SCID mice. Treated animals received (40 mg/kg/day) losartan by i.p. injection while control animals received saline.
# Based on the previous studies on the tumor interstitial matrix (Pluen A, et al. (2001) Proc Natl Acad Sci USA 98:4628-4633 and Brown E, et al. (2003) Nat Med 9:796-800), the inventors then sought to determine if a decrease in collagen content by Losartan can improve the intratumoral distribution of nanoparticles. The inventors therefore measured the intratumoral distribution of fluorescent polystyrene nanoparticles (100 nm diameter) in three different tumor types—HSTS26T, Mu89, and L3.6 pl—after an i.t. or i.v. injection. […] The inventors also determined the effects of losartan on the intratumoral distribution of oncolytic HSV.
# Mice with HSTS26T tumors implanted in a dorsal skin fold chamber were treated with i.p. injections of losartan (40 mg/kg/day) for 1 week. Fluorescence recovery after photobleaching (FRAP) measurements were done with a custom built multiphoton microscope based on a previously described protocol (Chauhan V P, et al. (2009) Biophys J 97:330-336). […] Matrix pore sizes were calculated using the SFA-FRAP data, using the equation […]
# [2] = system: Pan-02 pancreatic tumors; assay: Solid stress (tumor opening technique); set-up: species or system C57BL/6 mouse; conditions: mouse, in vivo
# Excerpt: FIG. 25 is a bar graph showing that angiotensin inhibitors decrease stress in multiple tumor models. Solid stress levels in tumors after angiotensin inhibition using losartan are shown. […] Animal numbers n=10-11 (4T1 stress), n=4-8 (Pan-02 stress).
# The mechanism responsible for the increase in tumor vessel perfusion by losartan was investigated. Desmoplasia, high stromal cell and matrix density, is a major contributor to the solid stress accumulation that compresses vessels (Stylianopoulos T, et al., Growth-induced mechanical stress in murine and human tumors: causes, consequences and remedies. under review. 2012). […] Moreover, losartan decreased collagen I concentration, measured based on staining intensity, in E0771 and AK4.4 tumors (FIGS. 24B-24C). […] Next, solid stress in these tumors was measured using recently established technique described in Stylianopoulos T, et al., Growth-induced mechanical stress in murine and human tumors: causes, consequences and remedies. under review. […]
# Solid stress: Solid stress was measured using the tumor opening technique as described previously (Stylianopoulos T, et al., Growth-induced mechanical stress in murine and human tumors: causes, consequences and remedies. under review. 2012). […] Subsequently, each tumor was excised, washed with Hanks' Balanced Salt Solution (HBSS) and its three dimensions were measured. […]
# [3] = system: HSTS26T tumors; assay: Collagen I immunostaining of tumor sections; assay type: in vivo, SCID mice
# Experimental: (§1) Human soft tissue sarcoma (HSTS26T) and human melanoma (Mu89) tumors were grown subcutaneously in the legs and dorsal skin fold chamber of severe combined immunodeficient (SCID) mice (Leunig M, et al. (1992) Cancer Res 52:6553-6560). Human pancreatic adenocarcinoma cells (L3.6PL) were grown orthotopically in the pancreas of SCID mice. L3.6PL tumors were induced with a sub-capsular injection of one million cells in the tail of the pancreas. Tumor sizes were monitored in spontaneous FVB/N-Tg (MMTV-PyVT) 634MU1/J mice and tumors selected for treatment when they reached a size of 4 to 6 mm in diameter (Guy C T et al. (1992) Mol Cell Biol 12:954-961).
# (§2) Cozaar (losartan potassium) tablets were ground using a mortar and pestle. The powder was then dissolved in water to obtain a concentration of 2.5 mg/ml. The solution was then filtered and stored in a sterile container.
# (§3) Frozen sections were cut into 10 μm sections for immunohistochemistry and imaging. Collagen I was detected using the LF-67 antibody (1:100 dilution) with a previously described protocol (Znati C A, et al. (2003) Clin Cancer Res 9:5508-5513). TSP-1 was detected with a goat anti-human antibody (1:50 dilution), which cross-reacts with mice (sc-12312, Santa Cruz Biotechnology Inc., Santa Cruz, Calif.). For collagen and TSP-1 analysis, images at 20× magnification were taken randomly from each slide. The collagen and TSP-1 content was determined by measuring the number of pixels above a threshold value that was set based on the average intensity value of pixels from all slides under analysis. The background-signal intensity for both collagen I and thrombospondin-1 immunostaining was low and uniform.
# [4] = system: L3.6 pl orthotopic pancreatic tumors; assay: Collagen I immunostaining of tumor sections; assay type: in vivo, SCID mice; conditions: 20 mg/kg/day, two weeks (FIG. 5B)
# Experimental: as §1, §2, §3
# [5] = system: Mu89 tumors; assay: Collagen I immunostaining of tumor sections; assay type: in vivo, SCID mice; conditions: 20 mg/kg/day, two weeks (FIG. 5D)
# Experimental: as §1, §2, §3
smiles,measurement,setting,value
CCCCc1nc(Cl)c(CO)n1Cc1ccc(-c2ccccc2-c2nn[nH]n2)cc1 [losartan],diffusion coefficient of IgG,"[1]; 40 mg/kg/day i.p., multiphoton FRAP",significant increase
same,mean interstitial matrix pore radius,"[1]; calculated from IgG diffusion data, control 9.91±0.43 nm",11.78±0.41 nm
same,solid stress,[2],reduces solid stress
same,reduction in collagen I immunostaining,"[3]; 20 mg/kg/day, dose response (FIG. 3), vs saline",42%
same,reduction in collagen I immunostaining,"[3]; 20 mg/kg/day, two weeks (FIG. 5D)",44%
same,reduction in collagen I immunostaining,"[3]; 60 mg/kg/day, dose response (FIG. 3), vs saline",63% and 65%
same,reduction in collagen I immunostaining,[4],50%
same,reduction in collagen I immunostaining,[5],20%
